Biological target: AMPK α1β1γ1 (Homo sapiens (Human), UniProt Q13131+Q9Y478)
Assay: in vitro AMPK activation assay (ADP Glo Luminescence Kinase test)
Assay type: biochemical
Details: for Emax: maximal achievable activation in the tested concentration range, percent of control max (positive control without test substance = 100%), read-out: AMPK α1β1γ1 PoCmax; for EC50: recombinant human AMPK alpha1/beta1/gamma1, ADP-Glo luminescence read-out
Protocol: Recombinant human AMPK (containing subunits alpha1, beta1 and gamma1) was obtained from a baculovirus expression system. The 3 subunits were expressed together, affinity-purified via a GST-tag fused to the alpha 1 subunit and deep-frozen in storage buffer (50 mM Tris-HCl pH 8, 300 mM NaCl, 1 mM TCEP and 10% glycerol) at −80° C. until use. The activity of the AMPK protein was determined using the ADP Glo® Luminescence Kinase test (Promega; V9103X). In this homogeneous test the amount of ADP formed by the kinase reaction is quantified by a luciferin-luciferase reaction using luminescence as read-out. The luminescence signal obtained correlates with the amount of ADP resulting from the kinase reaction and thus correlates with the activity of the protein kinase.
The test compounds were dissolved in 100% DMSO at a concentration of 10 mM and in a first step diluted in DMSO to a concentration of 5 mM, followed by serial dilution steps in 100% DMSO. Dilution factor and number of dilution steps may vary. Typically 8 different concentrations by 1:5 dilutions were prepared, further dilutions of the substances were carried out with test buffer (20 mM Hepes (pH 7.0), 15 mM MgCl2, 0.025% BSA, 0.01% Brij 35) until a concentration was reached which was 5 times above the final test concentration. 2 μl aliquots of these dilutions were transferred into a 384-well Optiplate (Perkin Elmer, #6007290). Typically the start concentration for serial dilutions in the assay is 10 μM. Typically AMPK was diluted to 25 μg/ml in the test buffer and 4 μl of this dilution were used in the kinase test (final concentration of AMPK is 10 μg/ml in a total volume of 10 μl for the kinase reaction). Kinase concentrations may vary depending on activity of the preparation batches. After 10 minutes incubation at room temperature 4 μl of a mix containing 2.5 μM substrate (H-His-Met-Arg-Ser-Ala-Met-Ser-Gly-Leu-His-Leu-Val-Lys-Arg-Arg-OH Trifluoroacetate salt/HMRSAMSGLHLVKRR from Bachem, Cat. No. H5938) and 75 μM ATP in test buffer were added to each well and the incubation was continued for 60 minutes at room temperature.
Positive controls are the reaction mixtures that contain no test substance; negative controls (blanks) are reaction mixtures that contain no AMPK enzyme.
After 60 minutes, 10 μl ADP-Glo® solution (ADP-Glo Reagent #V912B Promega) (heated to room temperature) were added to each well and incubation was continued for 40 minutes. Then 20 μl Kinase detection mix (Detection Buffer #V913B Promega; Kinase Detection Substrate #V914B Promega) were added and incubated for additional 40 minutes at room temperature.
All incubations were done in sealed plates in the dark.
The plates were read with an Envision Luminescence Reader (Perkin-Elmer).
Data Evaluation and Calculation:
The output file of the reader is a csv file that contains the well number and measured RLU. For data evaluation and calculation, the measurement of the negative control was set as 0% control and the measurement of the positive control was set as 100% control. Based on these values the % value for the measurement of each substance concentration was calculated using Assay Explorer software (Accelrys). Activating compounds achieve % of control values above 100%. The IC50 values were calculated from the % control values using Assay Explorer software. Calculation: [y=(a−d)/(1+(x/c)^b)+d], a=low value, d=high value; x=conc M; c=IC50 M; b=hill; y=% ctrl. The maximal achievable activation of a compound in the tested concentration range is reported as percent of control max (PoCmax).

AMPK α1β1γ1, sequence (Q13131 whole entry): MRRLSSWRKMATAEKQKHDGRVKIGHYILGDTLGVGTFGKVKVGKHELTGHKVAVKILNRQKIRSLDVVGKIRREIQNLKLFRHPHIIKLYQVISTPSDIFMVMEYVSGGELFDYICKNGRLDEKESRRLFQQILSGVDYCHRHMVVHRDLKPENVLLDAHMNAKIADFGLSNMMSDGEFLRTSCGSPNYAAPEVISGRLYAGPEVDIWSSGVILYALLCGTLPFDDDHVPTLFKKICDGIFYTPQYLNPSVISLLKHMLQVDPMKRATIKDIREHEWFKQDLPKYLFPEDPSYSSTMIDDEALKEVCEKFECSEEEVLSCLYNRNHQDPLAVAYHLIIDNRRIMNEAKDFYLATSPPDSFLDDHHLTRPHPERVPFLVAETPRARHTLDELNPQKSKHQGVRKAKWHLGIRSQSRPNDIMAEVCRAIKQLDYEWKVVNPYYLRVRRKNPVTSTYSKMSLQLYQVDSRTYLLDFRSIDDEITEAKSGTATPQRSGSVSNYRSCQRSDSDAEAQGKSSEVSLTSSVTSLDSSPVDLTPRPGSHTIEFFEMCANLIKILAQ
AMPK α1β1γ1, sequence (Q9Y478 whole entry): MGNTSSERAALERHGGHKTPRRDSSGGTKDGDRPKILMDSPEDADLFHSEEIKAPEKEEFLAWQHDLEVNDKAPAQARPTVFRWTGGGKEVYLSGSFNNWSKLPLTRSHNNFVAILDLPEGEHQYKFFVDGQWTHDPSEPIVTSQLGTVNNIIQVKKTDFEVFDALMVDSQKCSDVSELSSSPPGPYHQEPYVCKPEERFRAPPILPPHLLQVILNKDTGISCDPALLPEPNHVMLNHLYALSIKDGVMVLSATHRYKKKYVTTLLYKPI
AMPK α1β1γ1, sequence (P54619 whole entry partner): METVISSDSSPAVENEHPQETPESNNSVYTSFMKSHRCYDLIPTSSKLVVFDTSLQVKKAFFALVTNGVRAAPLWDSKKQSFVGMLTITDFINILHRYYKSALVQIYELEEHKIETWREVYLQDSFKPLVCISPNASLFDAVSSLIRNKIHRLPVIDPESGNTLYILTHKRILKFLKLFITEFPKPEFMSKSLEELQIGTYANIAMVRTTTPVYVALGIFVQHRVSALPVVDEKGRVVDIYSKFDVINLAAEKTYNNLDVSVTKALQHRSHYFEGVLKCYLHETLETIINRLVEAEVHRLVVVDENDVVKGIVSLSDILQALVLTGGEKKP

| SMILES | Emax [%] | EC50 [nM] |
| --- | --- | --- |
| CS(C)(=O)=Nc1ccc(-c2ccc(-c3nc4nc(O[C@@H]5CO[C@H]6[C@@H]5OC[C@H]6O)[nH]c4cc3F)cc2)cc1 [Example 12, ({4-[4-(2-{[(3R,3aR,6R,6aR)-6-Hydroxy-hexahydrofuro[3,2-b]furan-3-yl]oxy}-6-fluoro-1H-imidazo[4,5-b]pyridin-5-yl)phenyl]phenyl}imino)dimethyl-λ^6-sulfanone] | 608 | 109 |
| CS(C)(=O)=Nc1cc(F)c(-c2ccc(-c3nc4[nH]c(O[C@@H]5CO[C@H]6[C@@H]5OC[C@H]6O)nc4cc3Cl)cc2)cc1F [Example 3, ({4-[4-(2-{[(3R,3aR,6R,6aR)-6-Hydroxy-hexahydrofuro[3,2-b]furan-3-yl]oxy}-6-chloro-3H-imidazo[4,5-b]pyridin-5-yl)phenyl]-2,5-difluorophenyl}imino)dimethyl-λ^6-sulfanone] | 480 | 302 |
| CS(C)(=O)=Nc1ccc(-c2cc(F)c(-c3nc4nc(O[C@@H]5CO[C@H]6[C@@H]5OC[C@H]6O)[nH]c4cc3F)c(F)c2)cc1 [Example 16, ({4-[4-(2-{[(3R,3aR,6R,6aR)-6-Hydroxy-hexahydrofuro[3,2-b]furan-3-yl]oxy}-6-fluoro-1H-imidazo[4,5-b]pyridin-5-yl)-3,5-difluorophenyl]phenyl}imino)dimethyl-λ^6-sulfanone] | 475 | 74 |
| CS(C)(=O)=Nc1cc(F)c(-c2ccc(-c3nc4[nH]c(O[C@@H]5CO[C@H]6[C@@H]5OC[C@H]6O)nc4cc3Cl)cc2)c(F)c1 [Example 2, ({4-[4-(2-{[(3R,3aR,6R,6aR)-6-Hydroxy-hexahydrofuro[3,2-b]furan-3-yl]oxy}-6-chloro-3H-imidazo[4,5-b]pyridin-5-yl)phenyl]-3,5-difluorophenyl}imino)dimethyl-λ^6-sulfanone] | 496 | 115 |
| CS(C)(=O)=Nc1cnc(-c2ccc(-c3nc4[nH]c(O[C@@H]5CO[C@H]6[C@@H]5OC[C@H]6O)nc4cc3Cl)cc2)c(F)c1 [Example 10, ({6-[4-(2-{[(3R,3aR,6R,6aR)-6-Hydroxy-hexahydrofuro[3,2-b]furan-3-yl]oxy}-6-chloro-3H-imidazo[4,5-b]pyridin-5-yl)phenyl]-5-fluoropyridin-3-yl}imino)dimethyl-λ^6-sulfanone] | 479 | 193 |
| CS(C)(=O)=Nc1ccc(-c2ccc(-c3nc4[nH]c(O[C@@H]5CO[C@H]6[C@@H]5OC[C@H]6O)nc4cc3Cl)c(F)c2F)cc1 [Example 9, ({4-[4-(2-{[(3R,3aR,6R,6aR)-6-Hydroxy-hexahydrofuro[3,2-b]furan-3-yl]oxy}-6-chloro-3H-imidazo[4,5-b]pyridin-5-yl)-2,3-difluorophenyl]phenyl}imino)dimethyl-λ^6-sulfanone] | 700 | 282 |
| CS(=N)(=O)c1ccc(-c2ccc(-c3nc4[nH]c(O[C@@H]5CO[C@H]6[C@@H]5OC[C@H]6O)nc4cc3Cl)cc2)c(F)c1 (stereo partly drawn) [Example 13, {4-[4-(2-{[(3R,3aR,6R,6aR)-6-Hydroxy-hexahydrofuro[3,2-b]furan-3-yl]oxy}-6-chloro-3H-imidazo[4,5-b]pyridin-5-yl)phenyl]-3-fluorophenyl}(imino)methyl-λ^6-sulfanone] | 523 |  |
| CS(C)(=O)=Nc1ccc(-c2ccc(-c3nc4[nH]c(O[C@@H]5CO[C@H]6[C@@H]5OC[C@H]6O)nc4cc3Cl)cc2)cc1F [Example 1, ({4-[4-(2-{[(3R,3aR,6R,6aR)-6-Hydroxy-hexahydrofuro[3,2-b]furan-3-yl]oxy}-6-chloro-3H-imidazo[4,5-b]pyridin-5-yl)phenyl]-2-fluorophenyl}imino)dimethyl-λ^6-sulfanone] | 540 | 284 |
| CS(C)(=O)=Nc1c(F)cc(-c2ccc(-c3nc4[nH]c(O[C@@H]5CO[C@H]6[C@@H]5OC[C@H]6O)nc4cc3Cl)cc2)cc1F [Example 4, ({4-[4-(2-{[(3R,3aR,6R,6aR)-6-Hydroxy-hexahydrofuro[3,2-b]furan-3-yl]oxy}-6-chloro-3H-imidazo[4,5-b]pyridin-5-yl)phenyl]-2,6-difluorophenyl}imino)dimethyl-λ^6-sulfanone] | 421 | 3560 |
| COc1nc(-c2ccc(N=S(C)(C)=O)cc2)ccc1-c1nc2[nH]c(O[C@@H]3CO[C@H]4[C@@H]3OC[C@H]4O)nc2cc1Cl [Example 11, ({4-[5-(2-{[(3R,3aR,6R,6aR)-6-Hydroxy-hexahydrofuro[3,2-b]furan-3-yl]oxy}-6-chloro-3H-imidazo[4,5-b]pyridin-5-yl)-6-methoxypyridin-2-yl]phenyl}imino)dimethyl-λ^6-sulfanone] | 423 | 1200 |
| CS(C)(=O)=Nc1ccc(-c2ccc(-c3nc4[nH]c(O[C@@H]5CO[C@H]6[C@@H]5OC[C@H]6O)nc4cc3Cl)cc2F)cc1 [Example 8, ({4-[4-(2-{[(3R,3aR,6R,6aR)-6-Hydroxy-hexahydrofuro[3,2-b]furan-3-yl]oxy}-6-chloro-3H-imidazo[4,5-b]pyridin-5-yl)-2-fluorophenyl]phenyl}imino)dimethyl-λ^6-sulfanone] | 659 | 255 |
| COc1nc(-c2ccc(N=S(C)(C)=O)cc2F)ccc1-c1nc2[nH]c(O[C@@H]3CO[C@H]4[C@@H]3OC[C@H]4O)nc2cc1Cl [Example 15, ({4-[5-(2-{[(3R,3aR,6R,6aR)-6-Hydroxy-hexahydrofuro[3,2-b]furan-3-yl]oxy}-6-chloro-3H-imidazo[4,5-b]pyridin-5-yl)-6-methoxypyridin-2-yl]-3-fluorophenyl}imino)dimethyl-λ^6-sulfanone] | 426 | 344 |
| CS(C)(=O)=Nc1ccc(-c2ccc(-c3nc4[nH]c(O[C@@H]5CO[C@H]6[C@@H]5OC[C@H]6O)nc4cc3Cl)cc2)c(F)c1F [Example 6, ({4-[4-(2-{[(3R,3aR,6R,6aR)-6-Hydroxy-hexahydrofuro[3,2-b]furan-3-yl]oxy}-6-chloro-3H-imidazo[4,5-b]pyridin-5-yl)phenyl]-2,3-difluorophenyl}imino)dimethyl-λ^6-sulfanone] | 490 | 450 |
| CS(C)(=O)=Nc1ccc(-c2cc(F)c(-c3nc4nc(O[C@@H]5CO[C@H]6[C@@H]5OC[C@H]6O)[nH]c4cc3Cl)c(F)c2)cc1 [Example 17, ({4-[4-(2-{[(3R,3aR,6R,6aR)-6-Hydroxy-hexahydrofuro[3,2-b]furan-3-yl]oxy}-6-chloro-1H-imidazo[4,5-b]pyridin-5-yl)-3,5-difluorophenyl]phenyl}imino)dimethyl-λ^6-sulfanone] | 475 | 84 |
| CS(C)(=O)=Nc1ccc(-c2ccc(-c3nc4[nH]c(O[C@@H]5CO[C@H]6[C@@H]5OC[C@H]6O)nc4cc3Cl)c(F)c2)cc1 [Example 7, ({4-[4-(2-{[(3R,3aR,6R,6aR)-6-Hydroxy-hexahydrofuro[3,2-b]furan-3-yl]oxy}-6-chloro-3H-imidazo[4,5-b]pyridin-5-yl)-3-fluorophenyl]phenyl}imino)dimethyl-λ^6-sulfanone] | 640 | 125 |
| CS(C)(=O)=Nc1ccc(-c2ccc(-c3nc4[nH]c(O[C@@H]5CO[C@H]6[C@@H]5OC[C@H]6O)nc4cc3Cl)cc2)c(F)c1 [Example 5, ({4-[4-(2-{[(3R,3aR,6R,6aR)-6-Hydroxy-hexahydrofuro[3,2-b]furan-3-yl]oxy}-6-chloro-3H-imidazo[4,5-b]pyridin-5-yl)phenyl]-3-fluorophenyl}imino)dimethyl-λ^6-sulfanone] | 538 | 60 |
| CS(C)(=O)=Nc1ccc(-c2ccc(-c3nc4nc(O[C@@H]5CO[C@H]6[C@@H]5OC[C@H]6O)[nH]c4cc3F)cc2)c(F)c1 [Example 14, ({4-[4-(2-{[(3R,3aR,6R,6aR)-6-Hydroxy-hexahydrofuro[3,2-b]furan-3-yl]oxy}-6-fluoro-1H-imidazo[4,5-b]pyridin-5-yl)phenyl]-3-fluorophenyl}imino)dimethyl-λ^6-sulfanone] | 484 | 68 |
